# Measurements published in PubChem BioAssay (NCI).
#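 Results reflect a 48-hour exposure of cells in 96-well plates to compound at five concentrations. At the TGI there is no net growth.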
# What was measured:
# Experiment in all cases: NCI tumour cell line growth inhibition, 48 h
# [1] = test system: PC-3 prostate
# [2] = test system: RPMI-8226 leukemia
# [3] = test system: OVCAR-5 ovarian
# [4] = test system: SN12C renal
# [5] = test system: CCRF-CEM leukemia
# [6] = test system: OVCAR-8 ovarian
# [7] = test system: BT-549 breast
# [8] = test system: KM12 colon
# [9] = test system: UACC-257 melanoma
# [10] = test system: SF-268 CNS
# [11] = test system: TK-10 renal
# [12] = test system: UACC-62 melanoma
# [13] = test system: SK-OV-3 ovarian
# [14] = test system: SK-MEL-2 melanoma
# [15] = test system: SK-MEL-28 melanoma
# [16] = test system: MDA-MB-435
# [17] = test system: HS 578T breast
# [18] = test system: HCT-116 colon
# [19] = test system: SK-MEL-5 melanoma
# [20] = test system: SW-620 colon
# [21] = test system: T-47D breast
# [22] = test system: HOP-92 NSCLC
# [23] = test system: NCI-H226 lung
# [24] = test system: SF-539 CNS
# [25] = test system: NCI-H460 lung
# [26] = test system: LOX IMVI melanoma
# [27] = test system: MOLT-4 leukemia
# [28] = test system: M14 melanoma
# [29] = test system: SR leukemia
# [30] = test system: MCF7 breast
# [31] = test system: HCC-2998 colon
# [32] = test system: NCI/ADR-RES ovarian
# [33] = test system: HL-60(TB) leukemia
# [34] = test system: 786-0 renal
# [35] = test system: EKVX NSCLC
# [36] = test system: NCI-H23 lung
# [37] = test system: K-562 leukemia
# [38] = test system: HT29 colon
# [39] = test system: RXF 393 renal
# [40] = test system: HCT-15 colon
# [41] = test system: ACHN renal
# [42] = test system: A549 NSCLC
# [43] = test system: OVCAR-4 ovarian
# [44] = test system: SNB-19 CNS
# [45] = test system: OVCAR-3 ovarian
# [46] = test system: A498 renal
# [47] = test system: COLO 205 colon
# [48] = test system: CAKI-1 renal
# [49] = test system: MDA-N
# [50] = test system: U251 CNS
# [51] = test system: MALME-3M melanoma
# [52] = test system: SF-295 CNS
# [53] = test system: DU-145 prostate
# [54] = test system: HOP-62 NSCLC
# [55] = test system: IGROV1 ovarian
# [56] = test system: SNB-75 CNS
# [57] = test system: MDA-MB-231 breast
# [58] = test system: NCI-H522 lung
# [59] = test system: UO-31 renal
structure (smiles),measurement,setting,value
NN=C(CC(O)(C(F)(F)Cl)C(F)(F)Cl)CC(O)(C(F)(F)Cl)C(F)(F)Cl,TGI,[1],> 10 µM
same,TGI,[2],> 10 µM
same,TGI,[3],> 10 µM
same,TGI,[4],> 10 µM
same,TGI,[5],> 10 µM
same,TGI,[6],> 10 µM
same,TGI,[7],> 10 µM
same,TGI,[8],> 10 µM
same,TGI,[9],> 10 µM
same,TGI,[10],> 10 µM
same,TGI,[11],> 10 µM
same,TGI,[12],> 10 µM
same,TGI,[13],> 10 µM
same,TGI,[14],> 10 µM
same,TGI,[15],> 10 µM
same,TGI,[16],> 10 µM
same,TGI,[17],> 10 µM
same,TGI,[18],> 10 µM
same,TGI,[19],> 10 µM
same,TGI,[20],> 10 µM
same,TGI,[21],> 10 µM
same,TGI,[22],> 10 µM
same,TGI,[23],> 10 µM
same,TGI,[24],> 10 µM
same,TGI,[25],> 10 µM
same,TGI,[26],> 10 µM
same,TGI,[27],> 10 µM
same,TGI,[28],> 10 µM
same,TGI,[29],> 10 µM
same,TGI,[30],> 10 µM
same,TGI,[31],> 10 µM
same,TGI,[32],> 10 µM
same,TGI,[33],> 10 µM
same,TGI,[34],> 10 µM
same,TGI,[35],> 10 µM
same,TGI,[36],> 10 µM
same,TGI,[37],> 10 µM
same,TGI,[38],> 10 µM
same,TGI,[39],> 10 µM
same,TGI,[40],> 10 µM
same,TGI,[41],> 10 µM
same,TGI,[42],> 10 µM
same,TGI,[43],> 10 µM
same,TGI,[44],> 10 µM
same,TGI,[45],> 10 µM
same,TGI,[46],> 10 µM
same,TGI,[47],> 10 µM
same,TGI,[48],> 10 µM
same,TGI,[49],> 10 µM
same,TGI,[50],> 10 µM
same,TGI,[51],> 10 µM
same,TGI,[52],> 10 µM
same,TGI,[53],> 10 µM
same,TGI,[54],> 10 µM
same,TGI,[55],> 10 µM
same,TGI,[56],> 10 µM
same,TGI,[57],> 10 µM
same,TGI,[58],> 10 µM
Cc1ccc(S(=O)(=O)Nc2nnc(S(N)(=O)=O)s2)cc1,TGI,[2],> 100 µM
same,TGI,[3],> 100 µM
same,TGI,[4],> 100 µM
same,TGI,[6],> 100 µM
same,TGI,[7],> 100 µM
same,TGI,[8],> 100 µM
same,TGI,[9],> 100 µM
same,TGI,[10],> 100 µM
same,TGI,[11],> 100 µM
same,TGI,[12],> 100 µM
same,TGI,[13],> 100 µM
same,TGI,[14],> 100 µM
same,TGI,[15],> 100 µM
same,TGI,[16],> 100 µM
same,TGI,[17],> 100 µM
same,TGI,[18],> 100 µM
same,TGI,[19],> 100 µM
same,TGI,[20],> 100 µM
same,TGI,[21],> 100 µM
same,TGI,[22],> 100 µM
same,TGI,[23],> 100 µM
same,TGI,[25],> 100 µM
same,TGI,[26],> 100 µM
same,TGI,[27],> 100 µM
same,TGI,[28],> 100 µM
same,TGI,[29],> 100 µM
same,TGI,[30],> 100 µM
same,TGI,[31],> 100 µM
same,TGI,[32],> 100 µM
same,TGI,[34],> 100 µM
same,TGI,[35],> 100 µM
same,TGI,[36],> 100 µM
same,TGI,[37],> 100 µM
same,TGI,[39],> 100 µM
same,TGI,[40],> 100 µM
same,TGI,[41],> 100 µM
same,TGI,[42],> 100 µM
same,TGI,[43],> 100 µM
same,TGI,[44],> 100 µM
same,TGI,[45],> 100 µM
same,TGI,[46],> 100 µM
same,TGI,[47],> 100 µM
same,TGI,[48],> 100 µM
same,TGI,[49],> 100 µM
same,TGI,[50],> 100 µM
same,TGI,[51],> 100 µM
same,TGI,[52],> 100 µM
same,TGI,[59],> 100 µM
same,TGI,[53],> 100 µM
same,TGI,[54],> 100 µM
same,TGI,[57],> 100 µM
same,TGI,[58],> 100 µM
C=CCOn1c(C=C)nc2ccc(C)cc21,TGI,[1],31 µM
same,TGI,[2],24.9 µM
same,TGI,[3],41.7 µM
same,TGI,[4],33.4 µM
same,TGI,[5],7.21 µM
same,TGI,[6],> 100 µM
same,TGI,[7],41.2 µM
same,TGI,[8],44.2 µM
same,TGI,[9],32.3 µM
same,TGI,[10],80.2 µM
same,TGI,[11],32.4 µM
same,TGI,[12],26.8 µM
same,TGI,[13],> 100 µM
same,TGI,[14],30.6 µM
same,TGI,[15],38 µM
same,TGI,[16],44.5 µM
same,TGI,[17],> 100 µM
same,TGI,[18],24.4 µM
same,TGI,[19],31.4 µM
same,TGI,[20],40.8 µM
same,TGI,[21],43.5 µM
same,TGI,[22],> 100 µM
same,TGI,[23],37.5 µM
same,TGI,[25],32.8 µM
same,TGI,[26],37.5 µM
same,TGI,[27],68.8 µM
same,TGI,[28],32.6 µM
same,TGI,[29],33.4 µM
same,TGI,[30],24.9 µM
same,TGI,[31],33 µM
same,TGI,[32],> 100 µM
same,TGI,[33],22.2 µM
same,TGI,[34],32.9 µM
same,TGI,[35],37.8 µM
same,TGI,[36],46 µM
same,TGI,[37],55.3 µM
same,TGI,[38],30.2 µM
same,TGI,[40],68.2 µM
same,TGI,[41],59.6 µM
same,TGI,[42],68.5 µM
same,TGI,[43],> 100 µM
same,TGI,[44],46 µM
same,TGI,[45],40.9 µM
same,TGI,[46],43.6 µM
same,TGI,[47],26.9 µM
same,TGI,[48],49.3 µM
same,TGI,[49],35.7 µM
same,TGI,[50],26 µM
same,TGI,[51],38.9 µM
same,TGI,[52],82.6 µM
same,TGI,[59],27.4 µM
same,TGI,[54],78.3 µM
same,TGI,[55],> 100 µM
same,TGI,[56],43.4 µM
same,TGI,[57],48.1 µM
same,TGI,[58],32.9 µM
